Molecular target: CA IX (Homo sapiens, UniProt Q16790)
Assay: biochemical
Details: not given

Which “log10 of Ki in nM” value does the source give for `CCOc1nc(NCCc2ccc(S(N)(=O)=O)cc2)nc(OCC)n1` [A0719] here?
Its value is 1.079.

`Nc1c(C(=O)N/N=C2\C(=O)N(Cc3ccccc3)c3ccccc32)cnn1-c1ccc(S(N)(=O)=O)cc1` [A0861] was tested. Which “log10 of Ki in nM” value did it give?
The value was 1.301.

Which “log10 of Ki in nM” value does the source give for `Nc1c(Cl)cc(S(=O)(=O)Nc2nnc(S(N)(=O)=O)s2)cc1Br` [A0922] here?
Its value is 1.362.

How did the “log10 of Ki in nM” value turn out when `NS(=O)(=O)c1ccc(-c2cn([C@@H]3O[C@H](CO)[C@@H](O)[C@H](O)[C@H]3O)nn2)cc1` [A1466] was run?
The value was 1.897.

Same assay, conditions: experimental value from the library Ki (IDs A…, B…); values equal log10 of Ki in nM

With `NS(=O)(=O)c1ccc(C(=O)NCCc2ccc(O)c(O)c2)cc1` [A0813] as the compound, how does the “log10 of Ki in nM” value read?
The value was 1.230.

Which “log10 of Ki in nM” value does the source give for `NS(=O)(=O)c1cnccc1-n1ccc(=O)cc1` [A0836] here?
The value was 1.262.

`COc1ccc(-c2cc(CO)nn2-c2ccc(S(N)(=O)=O)cc2)cc1` [A0859] was tested. Which “log10 of Ki in nM” value did it give?
Its value is 1.301.

Which “log10 of Ki in nM” value does the source give for `Cc1ccc(-c2cc(CO)nn2-c2ccc(S(N)(=O)=O)cc2)cc1` [A0902] here?
Its value is 1.342.

`O=c1ccc2ccc(OCc3cn(-c4ccc(C(F)(F)F)cc4)nn3)cc2o1` [A0920] was tested. Which “log10 of Ki in nM” value did it give?
The value was 1.362.

For `CCCN(CCC)S(=O)(=O)c1ccc(C(=O)N[C@@H](CCC(=O)O)C(N)=O)cc1` [A0921], which “log10 of Ki in nM” value is on record?
The value was 1.362.

How did the “log10 of Ki in nM” value turn out when `CCCN(CCC)S(=O)(=O)c1ccc(C(=O)N[C@@H](Cc2c[nH]c3ccccc23)C(N)=O)cc1` [A0923] was run?
Its value is 1.362.

How did the “log10 of Ki in nM” value turn out when `CCOC(=O)NC(=S)N(CC(=O)c1ccccc1)c1ccc(S(N)(=O)=O)cc1` [A0977] was run?
The value was 1.398.

`COc1ccc(-c2cn(-c3ccc(S(N)(=O)=O)cc3)c(=S)[nH]2)cc1` [A1063] was tested. Which “log10 of Ki in nM” value did it give?
Its value is 1.477.

For `Cc1ccc(-c2nn(-c3ccc(S(N)(=O)=O)cc3)cc2-c2nc3ccccc3[nH]2)cc1` [A1267], which “log10 of Ki in nM” value is on record?
The value was 1.693.

How did the “log10 of Ki in nM” value turn out when `NS(=O)(=O)Nc1ccc(S(=O)(=O)Nc2nnc(S(N)(=O)=O)s2)cc1` [A1288] was run?
The value was 1.716.

Same assay, conditions: experimental value used for the QSPR model, library compounds (IDs A…, B…); equals log10 of Ki in nM

Which “log10 of Ki in nM” value does the source give for `NS(=O)(=O)c1ccc(OCCN2CCOCC2)cc1` [A0728] here?
Its value is 1.100.

Which “log10 of Ki in nM” value does the source give for `NS(=O)(=O)c1ccc(Nc2nc(Nc3ccccc3)nc(N3CCOCC3)n2)cc1` [A0867] here?
Its value is 1.303.

How did the “log10 of Ki in nM” value turn out when `NS(=O)(=O)c1ccc(/N=C/c2ccccc2)c(F)c1` [A1026] was run?
The value was 1.447.

Which “log10 of Ki in nM” value does the source give for `CCCC(=O)OC[C@H]1O[C@@H](n2cc(-c3ccc(S(N)(=O)=O)cc3)nn2)[C@H](OC(=O)CCC)[C@@H](OC(=O)CCC)[C@H]1OC(=O)CCC` [A1285] here?
Its value is 1.714.

`O=S1(=O)C=Cc2cc(-n3cc(C4CC4)nn3)ccc2O1` [A1333] was tested. Which “log10 of Ki in nM” value did it give?
Its value is 1.782.

How did the “log10 of Ki in nM” value turn out when `O=S1(=O)C=Cc2cc(-n3cnnn3)ccc2O1` [A1395] was run?
The value was 1.836.

For `CC(=O)OC[C@H]1O[C@@H](SCc2nnn(-c3ccc(S(N)(=O)=O)cc3)c2C#CCO)[C@H](OC(C)=O)[C@@H](OC(C)=O)[C@@H]1OC(C)=O` [A1422], which “log10 of Ki in nM” value is on record?
The value was 1.857.

For `NS(=O)(=O)c1cccc(-c2cn([C@@H]3O[C@H](CO)[C@@H](O)[C@H](O)[C@H]3O)nn2)c1` [A1463], which “log10 of Ki in nM” value is on record?
Its value is 1.893.

For `CC(C)(F)CNS(=O)(=O)c1ccc(N)cc1` [A1490], which “log10 of Ki in nM” value is on record?
Its value is 1.919.

For `Cc1c(C(=O)NCCN(C)C)cc(-c2ccc(-c3ccccc3)cc2)n1-c1ccc(S(N)(=O)=O)cc1` [A1493], which “log10 of Ki in nM” value is on record?
Its value is 1.919.

Same assay, conditions: library compounds with IDs A… and B…; from observed Ki (nM)

With `NS(=O)(=O)OC1CCN(S(=O)(=O)[C@@H]2O[C@H](CO)[C@@H](O)[C@H](O)[C@H]2O)CC1` [A0701] as the compound, how does the “log10 of Ki in nM” value read?
The value was 1.041.

How did the “log10 of Ki in nM” value turn out when `NS(=O)(=O)c1ccc(-n2cc(-c3ccc(Br)cc3)c3c2N=CN2NC(=O)CN=C32)cc1` [A0710] was run?
The value was 1.068.

`CCCN(CCC)S(=O)(=O)c1ccc(C(=O)N[C@@H](CCSC)C(N)=O)cc1` [A0860] was tested. Which “log10 of Ki in nM” value did it give?
The value was 1.301.

How did the “log10 of Ki in nM” value turn out when `Cc1cc(=O)oc2cc(-n3cc(CSc4ccccc4)nn3)ccc12` [A1053] was run?
The value was 1.471.

With `Fc1ccc(-c2nn(-c3ccccc3)cc2-c2nc3ccccc3[nH]2)cc1` [A1367] as the compound, how does the “log10 of Ki in nM” value read?
The value was 1.813.

With `Cc1nnnn1-c1ccc2c(c1)C=CS(=O)(=O)O2` [A1375] as the compound, how does the “log10 of Ki in nM” value read?
The value was 1.819.

`NS(=O)(=O)c1ccc(-n2cc(CO[C@@H]3O[C@H](COCc4ccccc4)[C@@H](OCc4ccccc4)[C@H]3OCc3ccccc3)nn2)cc1` [A1497] was tested. Which “log10 of Ki in nM” value did it give?
Its value is 1.924.

Source: article PMC6151961 (Journal of Enzyme Inhibition and Medicinal Chemistry, 2018)
